Reference: PubChem BioAssay AID1963854 (Molecular Pharmacology Branch, DTP, NCI, 2024)

System: 186277-243-T-J2-PDC complex spheroid viability
Experiment: Anticancer human tumor 186277-243-T-J2-PDC patient-derived colon adenocarcinoma cell line growth inhibition [POLQ]
Conditions: for IC50: curve of first compound; for viability, T/C: stronger effect = lower value
Summary of the method: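 Three-cell-type spheroids modelling solid tumor plus stroma served as the readout system; POL inhibitors were tested individually and in combination, concentration ranges set by clinical Cmax where known.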

[1] = second compound 0.0316 µM, first compound 0.0316 µM
[2] = second compound 0.0316 µM, first compound 0.1 µM
[3] = second compound 0.0316 µM, first compound 0.316 µM
[4] = second compound 0.0316 µM, first compound 1 µM
[5] = second compound 0.0316 µM, first compound 3.16 µM
[6] = second compound 0.0316 µM, first compound 10 µM
[7] = second compound 0.1 µM, first compound 0.0316 µM
[8] = second compound 0.1 µM, first compound 0.1 µM
[9] = second compound 0.1 µM, first compound 0.316 µM
[10] = second compound 0.1 µM, first compound 1 µM
[11] = second compound 0.1 µM, first compound 3.16 µM
[12] = second compound 0.1 µM, first compound 10 µM
[13] = second compound 0.316 µM, first compound 0.0316 µM
[14] = second compound 0.316 µM, first compound 0.1 µM
[15] = second compound 0.316 µM, first compound 0.316 µM
[16] = second compound 0.316 µM, first compound 1 µM
[17] = second compound 0.316 µM, first compound 3.16 µM
[18] = second compound 0.316 µM, first compound 10 µM
[19] = second compound 1 µM, first compound 0.0316 µM
[20] = second compound 1 µM, first compound 0.1 µM
[21] = second compound 1 µM, first compound 0.316 µM
[22] = second compound 1 µM, first compound 1 µM
[23] = second compound 1 µM, first compound 3.16 µM
[24] = second compound 1 µM, first compound 10 µM
[25] = second compound 3.16 µM, first compound 0.0316 µM
[26] = second compound 3.16 µM, first compound 0.1 µM
[27] = second compound 3.16 µM, first compound 0.316 µM
[28] = second compound 3.16 µM, first compound 1 µM
[29] = second compound 3.16 µM, first compound 3.16 µM
[30] = second compound 3.16 µM, first compound 10 µM
[31] = second compound 10 µM, first compound 0.0316 µM
[32] = second compound 10 µM, first compound 0.1 µM
[33] = second compound 10 µM, first compound 0.316 µM
[34] = second compound 10 µM, first compound 1 µM
[35] = second compound 10 µM, first compound 3.16 µM
[36] = second compound 10 µM, first compound 10 µM
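Further: spheroids exposed to compounds for seven days.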
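Wherever viability, T/C is given: 100% = DMSO vehicle control viability.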

Structure (SMILES): C#Cc1c(F)ccc2cc(O)cc(-c3ncc4c(N5CC6CCC(C5)N6)nc(OCC56CCCN5CC(F)C6)nc4c3F)c12 (stereo unspecified) + Cc1cccc(N(C)C(=O)C2C(O)CCN2c2nc(C)cc(C(F)(F)F)c2C#N)c1
- IC50 (second compound 0.0316 µM): 0.0975 µM
- IC50 (second compound 0.1 µM): 0.113 µM
- IC50 (second compound 0.316 µM): 0.0799 µM
- IC50 (second compound 1 µM): 0.0842 µM
- IC50 (second compound 3.16 µM): 0.0639 µM
- IC50 (second compound 10 µM): 0.0328 µM
- viability, T/C [1]: 81.1%
- viability, T/C [2]: 49.3%
- viability, T/C [3]: 21.4%
- viability, T/C [4]: 8.81%
- viability, T/C [5]: 6.82%
- viability, T/C [6]: 4.22%
- viability, T/C [7]: 80.7%
- viability, T/C [8]: 53.5%
- viability, T/C [9]: 21.9%
- viability, T/C [10]: 9.85%
- viability, T/C [11]: 6.56%
- viability, T/C [12]: 4.18%
- viability, T/C [13]: 86.9%
- viability, T/C [14]: 41%
- viability, T/C [15]: 16.9%
- viability, T/C [16]: 8.42%
- viability, T/C [17]: 6.35%
- viability, T/C [18]: 5.85%
- viability, T/C [19]: 89.8%
- viability, T/C [20]: 43%
- viability, T/C [21]: 19.6%
- viability, T/C [22]: 11%
- viability, T/C [23]: 6.21%
- viability, T/C [24]: 4.34%
- viability, T/C [25]: 80.6%
- viability, T/C [26]: 30.4%
- viability, T/C [27]: 11.1%
- viability, T/C [28]: 6.02%
- viability, T/C [29]: 6.21%
- viability, T/C [30]: 5.42%
- viability, T/C [31]: 51.6%
- viability, T/C [32]: 18.2%
- viability, T/C [33]: 11%
- viability, T/C [34]: 5.4%
- viability, T/C [35]: 4.3%
- viability, T/C [36]: 3.05%

Structure (SMILES): CC(C)n1c(=O)n(C)c2cnc3cc(F)c(-c4ccc(OCCCN5CCCCC5)nc4)cc3c21 + Cc1cccc(N(C)C(=O)C2C(O)CCN2c2nc(C)cc(C(F)(F)F)c2C#N)c1
- IC50 (second compound 0.0316 µM): > 10 µM
- IC50 (second compound 0.1 µM): > 10 µM
- IC50 (second compound 0.316 µM): > 10 µM
- IC50 (second compound 1 µM): > 10 µM
- IC50 (second compound 3.16 µM): > 10 µM
- IC50 (second compound 10 µM): > 10 µM
- viability, T/C [1]: 101%
- viability, T/C [2]: 97.7%
- viability, T/C [3]: 94.8%
- viability, T/C [4]: 90.8%
- viability, T/C [5]: 119%
- viability, T/C [6]: 100%
- viability, T/C [7]: 88.8%
- viability, T/C [8]: 93.2%
- viability, T/C [9]: 103%
- viability, T/C [10]: 92.3%
- viability, T/C [11]: 98%
- viability, T/C [12]: 88.2%
- viability, T/C [13]: 90.6%
- viability, T/C [14]: 95.6%
- viability, T/C [15]: 94%
- viability, T/C [16]: 87.6%
- viability, T/C [17]: 119%
- viability, T/C [18]: 93.9%
- viability, T/C [19]: 104%
- viability, T/C [20]: 107%
- viability, T/C [21]: 99.6%
- viability, T/C [22]: 102%
- viability, T/C [23]: 102%
- viability, T/C [24]: 84.5%
- viability, T/C [25]: 84.3%
- viability, T/C [26]: 86.8%
- viability, T/C [27]: 99.4%
- viability, T/C [28]: 96%
- viability, T/C [29]: 107%
- viability, T/C [30]: 97.2%
- viability, T/C [31]: 112%
- viability, T/C [32]: 94.6%
- viability, T/C [33]: 103%
- viability, T/C [34]: 114%
- viability, T/C [35]: 94.9%
- viability, T/C [36]: 82.7%

Structure (SMILES): CCc1cc2c(N3CCc4c(cc(Cn5ccnc5)cc4-c4cn(C)nc4C(F)(F)F)C3=O)cc(C)nc2c(OC)n1 + Cc1cccc(N(C)C(=O)C2C(O)CCN2c2nc(C)cc(C(F)(F)F)c2C#N)c1
- IC50 (second compound 0.0316 µM): > 10 µM
- IC50 (second compound 0.1 µM): > 10 µM
- IC50 (second compound 0.316 µM): > 10 µM
- IC50 (second compound 1 µM): > 10 µM
- IC50 (second compound 3.16 µM): > 10 µM
- IC50 (second compound 10 µM): > 10 µM
- viability, T/C [1]: 111%
- viability, T/C [2]: 86.9%
- viability, T/C [3]: 98.8%
- viability, T/C [4]: 97.1%
- viability, T/C [5]: 93.9%
- viability, T/C [6]: 95.2%
- viability, T/C [7]: 90.8%
- viability, T/C [8]: 91.3%
- viability, T/C [9]: 96.8%
- viability, T/C [10]: 99.4%
- viability, T/C [11]: 112%
- viability, T/C [12]: 83.2%
- viability, T/C [13]: 97%
- viability, T/C [14]: 101%
- viability, T/C [15]: 101%
- viability, T/C [16]: 114%
- viability, T/C [17]: 116%
- viability, T/C [18]: 92.5%
- viability, T/C [19]: 99.4%
- viability, T/C [20]: 96.9%
- viability, T/C [21]: 107%
- viability, T/C [22]: 111%
- viability, T/C [23]: 115%
- viability, T/C [24]: 83.4%
- viability, T/C [25]: 108%
- viability, T/C [26]: 104%
- viability, T/C [27]: 88.6%
- viability, T/C [28]: 113%
- viability, T/C [29]: 94.1%
- viability, T/C [30]: 92.9%
- viability, T/C [31]: 101%
- viability, T/C [32]: 110%
- viability, T/C [33]: 107%
- viability, T/C [34]: 103%
- viability, T/C [35]: 104%
- viability, T/C [36]: 97.9%
